Results published in publication PMC6934184, “Selective DNA-PKcs inhibition extends the therapeutic index of localized radiotherapy and chemotherapy” (The Journal of Clinical Investigation, 2019).

Target: T1, MAPK12 (p38 gamma) (Homo sapiens, UniProt P53778)
T1 construct: purchased Thermo Fisher Scientific (Life Technologies) SelectScreen
Assay: SelectScreen Z'LYTE
Assay type: biochemical
In short: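 SelectScreen broad panel; activity (Z'LYTE, Adapta) plus binding formats. ATP: Km app for CSF1R Z'LYTE; 10 for CAMK1 Adapta. Readout = % per kinase.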

T1 sequence (P53778 whole entry): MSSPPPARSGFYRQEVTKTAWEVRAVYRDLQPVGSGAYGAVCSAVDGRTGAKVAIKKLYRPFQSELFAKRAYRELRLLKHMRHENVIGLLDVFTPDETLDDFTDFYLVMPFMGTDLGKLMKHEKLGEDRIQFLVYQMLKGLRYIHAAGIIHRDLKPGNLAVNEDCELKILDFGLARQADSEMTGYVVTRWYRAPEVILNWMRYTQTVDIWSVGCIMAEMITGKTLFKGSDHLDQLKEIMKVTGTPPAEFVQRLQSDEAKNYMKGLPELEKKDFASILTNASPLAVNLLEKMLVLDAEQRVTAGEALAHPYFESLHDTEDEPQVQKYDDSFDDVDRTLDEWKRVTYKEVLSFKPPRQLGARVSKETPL

CN(C(=O)CN1CCOCC1)c1ccc2sc3c(-c4cccc5c(=O)cc(N6CC7CCC(C6)O7)oc45)cccc3c2c1 [NU5455]
inhibition at 1 µM: -0.8%
